Experimental data reported in patent US20130101509A1, “IMAGING AND RADIOTHERAPY METHODS” (GENERAL ELECTRIC COMPANY, priority 2008, published 2013).

How the values were obtained:
[1] = biological target: T1, Aldehyde Dehydrogenase (Yeast ALDH) (Saccharomyces cerevisiae, UniProt P46367); assay: ALDH assay by spectroscopic method (screening for ALDH activity); type: biochemical; conditions: substrate reagent 50 μM in 0.1M TrisHCl pH 8.0, change in absorbance or fluorescence as a function of time
T1 sequence (P46367 25-519): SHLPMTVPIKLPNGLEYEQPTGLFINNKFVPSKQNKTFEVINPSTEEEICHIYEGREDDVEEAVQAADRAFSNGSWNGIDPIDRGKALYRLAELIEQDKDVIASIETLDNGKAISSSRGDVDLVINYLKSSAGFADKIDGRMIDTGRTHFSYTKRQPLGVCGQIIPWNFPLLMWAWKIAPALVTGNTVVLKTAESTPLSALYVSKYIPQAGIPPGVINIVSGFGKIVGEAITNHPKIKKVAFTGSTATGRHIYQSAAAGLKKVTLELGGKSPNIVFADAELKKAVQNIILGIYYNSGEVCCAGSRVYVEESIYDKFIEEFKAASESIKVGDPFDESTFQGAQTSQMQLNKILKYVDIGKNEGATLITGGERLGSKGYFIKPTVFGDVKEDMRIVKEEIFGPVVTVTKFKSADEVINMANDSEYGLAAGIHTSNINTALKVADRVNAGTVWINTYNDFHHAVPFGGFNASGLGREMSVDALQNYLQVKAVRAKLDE
Excerpt: Aldehyde Dehydrogenase is an enzyme that acts on aldehydes as substrates and converts them to acid (products).
Designing and Standardization of ALDH Assay: • following the conversion of NAD+ to NADH typically one does the ALDH assays.
[drawing 72] • The formation of NADH is monitored by measuring the absorbance at 340 nm. However, before employing this method, the compounds were screened for their spectral properties, especially to avoid any interference in absorbance either from the substrate or the product.
Such compounds were further screened for their fluorescence properties by recording their excitation/emission wavelengths.
ALDH Assay by Spectroscopic Method: • The ALDH assay is designed to measure either the utilization of the substrate or formation of product by measuring at their unique wavelengths (Absorbance or Fluorescence).
All the spectral studies for the compounds were carried out in 0.1M Tris HCl pH 8.0 buffer. CSCT Compounds were initially dissolved in Methanol (˜2.0 mg/mL). The compounds were further diluted in 0.1M Tris HCl pH 8.0 buffer (concentration ranging from ˜20 to 50 μg/mL). The Spectra was recorded using Spectramax M5.
The ALDH activity can be followed either by monitoring the conversion of β-NAD^+ to β-NADH or by directly monitoring the product/substrate. The conversion of β-NAD^+ to β-NADH yields increasing in absorbance at 340 nm. If either the substrate/products have any spectral interference at this wavelength then unique absorbance/fluorescence wavelength of either product/substrate are used. The measurements were taken on Spectromax M5.
• 1. Reagent 1: 1 M Tris HCl Buffer, pH 8.0 at 25° C. (Prepare 50 ml in deionized water using Trizma Base, Sigma Prod. No. T-1503. Adjust to pH 8.0 at 25° C. with 1 M HCl.) • 2. Reagent 2: 20 mM β-Nicotinamide Adenine Dinucleotide, Oxidized Form, Solution (β-NAD^+) (Prepare 1 ml in deionized water using β-Nicotinamide Adenine Dinucleotide, PREPARE FRESH). • 3. Reagent 3: 3 M Potassium Chloride Solution (KCl) (Prepare 1 ml in deionized water using Potassium Chloride). • 4. Reagent 4: 1 M 2-Mercaptoethanol Solution (2-ME) (Prepare 1 ml in deionized water using 2-Mercaptoethanol. PREPARE FRESH.) • 5. Reagent 5: 100 mM Tris HCl Buffer with 0.02% (w/v) Bovine Serum Albumin, pH 8.0 at 25° C. (for Enzyme Dilution). • 6. Reagent 6: Aldehyde Dehydrogenase Enzyme Solution (Yeast ALDH). Immediately before use, prepare a solution containing 0.5-1 unit/ml of Aldehyde Dehydrogenase in cold Reagent 5).
Pipette (in milliliters) the following reagents into vial:
In a 3.00 ml reaction mix, the final concentrations are 103 mM Tris HCl Buffer (Reagent 1), 0.67 mM β-nicotinamide adenine dinucleotide (Reagent 2), 100 mM potassium chloride (Reagent 3), 10 mM 2-mercaptoethanol (Reagent 4), 0.0007% (w/v) bovine serum albumin (Reagent 5) and 0.05-0.1 unit aldehyde dehydrogenase (Reagent 6).

[2] = test system: ALDH; assay: Cell based ALDH assay: competition against ALDEFLUOR in SK-BR-3 cells, FACS
Method: Briefly, the compound was dissolved in DMSO and competed against ALDEFLUOR™, a BODIPY-conjugated ALDH substrate, in a cell-based assay using SK-BR-3 cells. The BODIPY fluorescence in the cell samples were measured using FACS at 488 nm. The median fluorescence of each sample was measured and fitted to a sigmoidal dose-response curve for calculation of IC50 using Prism Graphpad.
6-(2-fluoroethyloxy)-2-naphthaldehyde was dissolved and diluted in DMSO prior to use.
SK-BR-3 cells, a cell line reported to have a high expression of ALDH+ cells, was used for all experiments. The cells were cultured in RPMI media supplemented with 10% fetal bovine serum and 2 mM L-glutamine, in 37° C., 5% CO2. On the day of assay, cells were harvested by trypsination, centrifuged, and re-suspended in ALDEFLUOR™ assay buffer to a concentration of 1×10^6 cells.
The compound was competed against ALDEFLUOR™, a BODIPY-conjugated ALDH substrate. […] Following incubation at 37° C., the fluorescence was measured in each sample by FACS at 488 nm. […]
The median fluorescence of each sample was calculated, and the values were then normalized and fitted to a dose-response curve for calculation of IC50 using Prism Graphpad.

| Compound | Comments (ALDH assay screening result) [1] | IC50 ([2]; competition against ALDEFLUOR, BODIPY fluorescence by FACS at 488 nm, compound 0.005-50 μM) [nM] | Displacement of ALDEFLUOR (decrease in fluorescence with increasing compound concentration) ([2]; FACS at 488 nm) |
| --- | --- | --- | --- |
| O=Cc1ccc2ccccc2c1 [2-Naphthaldehyde] | Active | – | – |
| O=CCCNC(=O)c1ccc(F)cc1 [Example 2, (2-formylethyl)-4-fluorobenzamide] | Not active | – | – |
| O=Cc1ccc(F)cc1 [4-fluorobenzaldehyde] | Active | – | – |
| O=Cc1ccc(I)cc1 [4-Iodobenzaldehyde] | Active | – | – |
| COc1cccc(C=O)c1 [3-anisladehyde] | Active | – | – |

Further lines, with some results ahead:

| Comments (ALDH assay screening result) [1] | IC50 ([2]; competition against ALDEFLUOR, BODIPY fluorescence by FACS at 488 nm, compound 0.005-50 μM) [nM] | Compound | Displacement of ALDEFLUOR (decrease in fluorescence with increasing compound concentration) ([2]; FACS at 488 nm) |
| --- | --- | --- | --- |
| Active | – | O=Cc1ccc2cc(OCCCF)ccc2c1 [Example 3, 6-(3-fluororpropyloxy)-2-naphthaldehyde] | – |
| Active | – | COc1ccc2cc(C=O)ccc2c1 [6-Methoxy-2-Naphthaldehyde] | – |
| Active | 330 | O=Cc1ccc2cc(OCCF)ccc2c1 [Example 3A, 6-(2-fluoroethyloxy)-2-naphthaldehyde] | displaced ALDEFLUOR™ |
